Results: patent EP4471048A1, “PEPTIDE INHIBITORS OF INTERLEUKIN-23 RECEPTOR” (Zealand Pharma A/S, priority 2023, dated 2024)
Where two headings read alike, the source gives them in different places. Where a SMILES comes first, the peptide text is derived from it. Bridges are numbered along the chain shown (N, C = ends). [ ]: non-standard residue; d: D form. 2Nal = N[C@@H](Cc1ccc2ccccc2c1)C(=O)O; AEF = NCCOc1ccc(C[C@H](N)C(=O)O)cc1; 3Pal = N[C@@H](Cc1cccnc1)C(=O)O; αMeL = CC(C)C[C@](C)(N)C(=O)O; Orn = NCCC[C@H](N)C(=O)O; Dab = NCC[C@H](N)C(=O)O; βAla = NCCC(=O)O

Assays:
[1] = target: IL-23 mediated signalling (Homo sapiens, UniProt Q5VWK5); assay: Functional inhibition of IL-23 mediated STAT3 signalling (phospho-STAT3 MSD) in DB cells; format: cell-based; conditions: for Emax: read-out: hIL-23 (pSTAT3) antagonist % inhibition
Excerpt: Upon binding of IL-23, the IL-23R forms a heterodimer signalling complex together with IL-12R β1, which through the JAK2/STAT3 pathway promotes phosphorylation of STAT3 to form phospho-STAT3.
For compounds tested in this assay, the response was normalized relative to control values to calculate the IC50 and maximal inhibitory response from a concentration response curve of the compound in presence of a fixed concentration of human IL-23.
The assay procedure was as follows. […] Following preincubation of the DB cells with inhibitor for 15 min in a cell incubator (37 °C, 5% CO2), 20 µL of the prepared 3X the EC80 of hIL-23 solution was added to each well and incubated for 90 min in a cell incubator (37 °C, 5% CO2). For some wells buffer only or IL-23 only corresponding to the EC80 was added to obtain readouts needed for normalization. To terminate the assay, the plate was spun at 1000 G for 5 min to pellet cells, the supernatant removed using an 8-channel manual pipette, and then added 50 µL/well Complete Lysis Buffer from the MSD STAT3 kit (Cat# K150SVD, Mesoscale) to the cell pellet. To completely lyse cells to release phospho-STAT3 for detection, the plate was shaken for 10 min at room temperature (500 rpm) sealed with aluminium foil and placed at -80 °C for a minimum of 15 min. Detection of the phospho-STAT3 level in the cell lysate from the individual wells was determined using the MSD STAT3 kit (Cat# K150SVD, Mesoscale) and read on a Meso QuickPlex SQ 120 plate reader (Mesoscale).
For data analysis raw data counts from the Meso QuickPlex SQ 120 plate reader were normalized relative to the response by the EC80 of h1L-23 alone (no compound added) and the buffer level. Compound potency (IC50) and maximal inhibitory response (% inhibition) were estimated by computer-aided curve fitting using a 4-parameter logistic (4PL) nonlinear model. […] Table 3-2: hIL-23 (pSTAT3) antagonist IC50 and % inhibition

human IL-23R = target: T1, human IL-23R (Homo sapiens, UniProt Q5VWK5); assay: biochemical; conditions: for Emax: read-out: % displacement (hIL-23R NIuc)
T1 sequence (Q5VWK5 22-629): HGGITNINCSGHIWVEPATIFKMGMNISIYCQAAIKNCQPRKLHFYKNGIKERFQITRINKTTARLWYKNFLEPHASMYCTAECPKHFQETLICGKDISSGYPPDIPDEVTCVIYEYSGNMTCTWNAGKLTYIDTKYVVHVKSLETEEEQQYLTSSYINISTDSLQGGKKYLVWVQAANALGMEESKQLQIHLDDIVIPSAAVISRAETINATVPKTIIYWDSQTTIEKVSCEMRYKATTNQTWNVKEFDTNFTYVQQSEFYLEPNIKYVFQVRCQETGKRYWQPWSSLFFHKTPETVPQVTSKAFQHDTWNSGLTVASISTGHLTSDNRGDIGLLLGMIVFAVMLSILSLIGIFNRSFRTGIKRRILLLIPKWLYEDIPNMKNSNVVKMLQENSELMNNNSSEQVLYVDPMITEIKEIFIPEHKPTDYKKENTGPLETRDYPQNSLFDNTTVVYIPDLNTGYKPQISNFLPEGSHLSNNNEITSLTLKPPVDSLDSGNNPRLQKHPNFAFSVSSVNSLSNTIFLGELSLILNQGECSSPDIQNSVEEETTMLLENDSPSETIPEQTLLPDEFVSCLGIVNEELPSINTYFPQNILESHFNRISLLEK
Method in brief: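 Membranes from HEK293 cells stably expressing Nluc-tagged human IL-23R were incubated 2 h at room temperature with test compound and a fluorophore-labelled tracer. After substrate addition, loss of BRET (TAMRA over luciferase emission) reported tracer displacement. A 4PL fit gave IC50 values.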

[2] = Peptide stability in simulated intestinal fluid (SIF); format: in vitro ADME; conditions: pig, 37 °C, porcine pancreatin; for remaining at 1 h, 10 µM: pH 6.8, 1 h; for remaining at 4 h, 10 µM: pH 6.8, 4 h, read-out: SIF (% remaining 4 h)
Method in brief: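 Peptides were incubated at 37 °C with gentle shaking in pH 6.8 potassium phosphate SIF containing porcine pancreatin (10 g/L). Supernatants were analysed by LC-HRMS. Percent remaining at each timepoint, including 4 h, was calculated relative to time zero from absolute peak areas.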

[3] = Peptide stability in simulated gastric fluid (SGF); format: in vitro ADME; conditions: pig, simulated gastric fluid (SGF) with porcine pepsin (3.2 g/L), pH 1.2, 10 µM, 37 °C, porcine pepsin; for remaining at 1 h, 10 µM: pH 1.2, 1 h, read-out: SGF (% remaining 1 h); for remaining at 4 h, 10 µM: pH 1.2, 4 h, read-out: SGF (% remaining 4 h)
Method in brief: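 Peptide incubated at 37 °C with gentle shaking in SGF (NaCl, pH 1.2). Samples centrifuged, diluted and analysed by LC-HRMS; percent remaining at each timepoint from absolute peak areas relative to time zero, with 4 h as the reference point.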

[4] = Table 3-2, maximal inhibitory response, DB cells, hIL-23 at EC80

| IC50 (human IL-23R) | IC50 ([1]; SAR tables 2-1 to 2-7, DB cells, hIL-23 at EC80, read-out: IC50 (pSTAT3)) | Emax [1, 4] | Emax (human IL-23R) | IC50 ([1]; Table 3-2, DB cells, hIL-23 at EC80, read-out: hIL-23 (pSTAT3) antagonist IC50) | % displacement (hIL-23R NIuc) (human IL-23R) | remaining at 1 h, 10 µM [2] | remaining at 4 h, 10 µM [2] | remaining at 1 h, 10 µM [3] | remaining at 4 h, 10 µM [3] | Structure (SMILES) | Emax ([1]; DB) |
| --- | --- | --- | --- | --- | --- | --- | --- | --- | --- | --- | --- |
| 0.021 nM | 0.11 nM | 99% | 100% |  |  |  |  |  |  | CC(C)C[C@]1(C)NC(=O)[C@H](Cc2ccc3ccccc3c2)NC(=O)[C@H](Cc2ccc(OCCN)cc2)NC(=O)[C@@H]2CCC(=O)N[C@@H](CCCCNC(=O)CC[C@@H](C(=O)N[C@@H](CCN)C(=O)N[C@@H](Cc3cccnc3)C(N)=O)NC1=O)C(=O)N[C@@H]([C@@H](C)O)C(=O)N[C@@H](C(C)C)C(=O)N[C@@H](Cc1c[nH]c3ccccc13)C(=O)N[C@@H](CCC(N)=O)C(=O)N2 [Compound 2, K(1c)(6c)^†TVWQE(6c)[Y(2-aminoethoxy)][2-Nal][2-Me-Leu]E(1c)[Dab][3-(3-Pyridyl)-Ala]-[NH2]] (KTVWQE[AEF][2Nal][αMeL]E[Dab][3Pal]-NH2; lactam 1-10, N-6) |  |
| 0.091 nM |  | 101% | 105% | 1.5 nM |  |  |  |  |  | CC(C)C[C@]1(C)NC(=O)[C@H](Cc2ccc3ccccc3c2)NC(=O)[C@H](Cc2ccc(OCCN)cc2)NC(=O)[C@@H]2CC(=O)N[C@H](CCCCNC(=O)CC[C@@H](C(=O)N[C@@H](CCN)C(=O)N[C@@H](Cc3cccnc3)C(N)=O)NC1=O)C(=O)N[C@@H]([C@@H](C)O)C(=O)N[C@@H](C(C)C)C(=O)N[C@@H](Cc1c[nH]c3ccccc13)C(=O)N[C@@H](CCC(N)=O)C(=O)N2 [Compound 3, [{d}K](1c)(6c)^†TVWQD(6c)[Y(2-aminoethoxy)][2-Nal][2-Me-Leu]E(1c)[Dab][3-(3-Pyridyl)-Ala]-[NH2]] ([dK]TVWQD[AEF][2Nal][αMeL]E[Dab][3Pal]-NH2; lactam 1-10, N-6) |  |
| 0.039 nM |  |  |  |  | 103% | 1% | 1% | 87% | 89% | CNC(=O)[C@H](Cc1cccnc1)NC(=O)[C@H](Cc1cccnc1)NC(=O)[C@@H]1CCC(=O)NCCCC[C@@H]2NC(=O)CC[C@H](NC(=O)[C@H](CCC(N)=O)NC(=O)[C@H](Cc3c[nH]c4ccccc34)NC(=O)CCNC2=O)C(=O)N[C@@H](Cc2ccc(OCCN)cc2)C(=O)N[C@@H](Cc2ccc3ccccc3c2)C(=O)N[C@@](C)(CC(C)C)C(=O)N1 [Compound 87, K(1c)(6c)^†[3-Aminopropanoyl]WQE(6c)[Y(2-aminoethoxy)][2-Nal][2-Me-Leu]E(1 c)[3-(3-Pyridyl)-Ala][3-(3-Pyridyl)-Ala]-[NHMe]] |  |
| 0.35 nM |  |  | 100% |  |  | 98% | 57% | 116% | 115% | CNC(=O)[C@H](Cc1cccnc1)NC(=O)[C@H](CCN)NC(=O)[C@@H]1CCC(=O)NCCC[C@@H]2NC(=O)CC[C@H](NC(=O)[C@H](CCC(N)=O)NC(=O)[C@H](Cc3c[nH]c4ccccc34)NC(=O)CCNC2=O)C(=O)N[C@@H](Cc2ccc(OCCN)cc2)C(=O)N[C@@H](Cc2ccc3ccccc3c2)C(=O)N[C@@](C)(CC(C)C)C(=O)N1 [Compound 91, [Orn](1c)(6c)^†[3-Aminopropanoyl]WQE(6c)[Y(2-aminoethoxy)][2-Nal][2-Me-Leu]E(1c)[Dab][3-(3-Pyridyl)-Ala]-[NHMe]] ([Orn][βAla]WQE[AEF][2Nal][αMeL]E[Dab][3Pal]-NHMe; lactam 1-9, N-5) |  |
| 0.03 nM |  |  | 91% |  |  | 103% | 105% | 105% | 105% | CC[C@H](C)[C@H]1CC(=O)N[C@@H](Cc2c[nH]c3ccccc23)C(=O)N[C@@H](CCC(N)=O)C(=O)N[C@H]2CCC(=O)N[C@@H](CCCCNC(=O)CC[C@@H](C(=O)N[C@@H](CCN)C(=O)N[C@@H](Cc3cccnc3)C(=O)NC)NC(=O)[C@](C)(CC(C)C)NC(=O)[C@H](Cc3ccc4ccccc4c3)NC(=O)[C@H](Cc3ccc(OCCN)cc3)NC2=O)C(=O)N1 [Compound 96, K(1c)(6c)^†[beta-hlle]WQE(6c)[Y(2-aminoethoxy)][2-Nal][2-Me-Leu]E(1c)[Dab][3-(3-Pyridyl)-Ala]-[NHMe]] |  |
| 0.024 nM |  |  |  |  | 101% | 88% | 58% | 101% | 96% | CNC(=O)[C@H](Cc1cccnc1)NC(=O)[C@H](CCN)NC(=O)[C@@H]1CCC(=O)NCCCC[C@@H]2NC(=O)CC[C@H](NC(=O)[C@H](CCC(N)=O)NC(=O)[C@H](Cc3c[nH]c4ccccc34)NC(=O)CCCNC2=O)C(=O)N[C@@H](Cc2ccc(OCCN)cc2)C(=O)N[C@@H](Cc2ccc3ccccc3c2)C(=O)N[C@@](C)(CC(C)C)C(=O)N1 [Compound 98, K(1c)(6c)^†[4-Aminobutanoyl]WQE(6c)[Y(2-aminoethoxy)][2-Nal][2-Me-Leu]E(1c)[Dab][3-(3-Pyridyl)-Ala]-[NHMe]] |  |
| 0.5 nM |  |  | 101% |  |  | 106% | 89% | 100% | 106% | CNC(=O)[C@H](Cc1cccnc1)NC(=O)[C@H](CCN)NC(=O)[C@@H]1CCC(=O)N[C@H]2CCCCNC(=O)CC[C@H](NC(=O)[C@H](CCC(N)=O)NC(=O)[C@H](Cc3c[nH]c4ccccc34)NC(=O)CNC2=O)C(=O)N[C@@H](Cc2ccc(OCCN)cc2)C(=O)N[C@@H](Cc2ccc3ccccc3c2)C(=O)N[C@@](C)(CC(C)C)C(=O)N1 [Compound 104, [iso-Lys](1c)^†(6c)GWQE(6c)[Y(2-aminoethoxy)][2-Nal][2-Me-Leu]E(1c)[Dab][3-(3-Pyridyl)-Ala]-[NHMe]] |  |

| Structure (SMILES) | IC50 (human IL-23R) | IC50 ([1]; SAR tables 2-1 to 2-7, DB cells, hIL-23 at EC80, read-out: IC50 (pSTAT3)) | Emax [1, 4] | Emax (human IL-23R) | IC50 ([1]; Table 3-2, DB cells, hIL-23 at EC80, read-out: hIL-23 (pSTAT3) antagonist IC50) | % displacement (hIL-23R NIuc) (human IL-23R) | remaining at 1 h, 10 µM [2] | remaining at 4 h, 10 µM [2] | remaining at 1 h, 10 µM [3] | remaining at 4 h, 10 µM [3] | Emax ([1]; DB) |
| --- | --- | --- | --- | --- | --- | --- | --- | --- | --- | --- | --- |
| CC(C)C[C@]1(C)NC(=O)[C@H](Cc2c[nH]c3ccccc23)NC(=O)[C@H](Cc2c[nH]c3ccccc23)NC(=O)[C@@H]2CSCC(=O)CSC[C@H](NC(=O)[C@H]([C@@H](C)O)NC(=O)[C@@H](NC(=O)CN)CSCC(=O)CSC[C@@H](C(=O)N[C@@H](CO)C(N)=O)NC1=O)C(=O)N[C@@H](Cc1c[nH]c3ccccc13)C(=O)N[C@@H](CCC(=O)O)C(=O)N2 (single isomer, unassigned) [I5 (isomer 3), H-GC(1a)TC(2a)WEC(2a)WW[2-Me-Leu]C(1a)S-[NH2], reference compound] | 90 nM |  |  |  |  |  |  |  |  |  | 91% |
